Assay results published in US20240300945A1, “CLY SERIES COMPOUND, PREPARATION METHOD THEREFOR AND USE THEREOF IN PREPARATION OF DRUGS” (NANJING WELLBEST PHARMACEUTICAL CO., LTD, priority 2021, published 2024).
Marks after values point to notes of the source that are not given here.

Legend:
rabbit ear acne model = assay: Rabbit ear acne model: epidermal thickness, hair follicle area, sebaceous gland diameter; type: in vivo, New Zealand rabbits; conditions: rabbit right ear
From the text: New Zealand rabbits were, according to weights, randomly divided into the model control group (applied cream matrix), positive treatment group (applied Differin on the skin), CLY-1 external treatment group (0.25% CLY-1 cream on the skin), CLY-2 external treatment group (0.25% CLY-2 cream on the skin), CLY-3 external treatment group (0.25% CLY-3 cream on the skin), CLY-4 external treatment group (0.25% CLY-4 cream on the skin) CLY-8 external treatment group (0.25% CLY-8 cream on the skin), CLY-9 external treatment group (0.25% CLY-9 cream on the skin), CLY-11 external treatment group (0.25% CLY-11 cream on the skin), CLY-19 external treatment group (0.25% CLY-19 cream on the skin), CLY-36 external treatment group (0.25% CLY-36 cream on the skin); CLY-1 intravenous injection group (1 mg/kg·d), CLY-2 intravenous injection group (1 mg/kg·d), CLY-3 intravenous injection group (1 mg/kg·d), CLY-4 intravenous injection group (1 mg/kg·d), CLY-8 intravenous injection group (1 mg/kg·d), CLY-9 intravenous injection group (1 mg/kg·d), CLY-11 intravenous injection group (1 mg/kg·d), CLY-19 intravenous injection group (1 mg/kg·d), and CLY-36 intravenous injection group (1 mg/kg·d), with 10 in each group. Took the inner side of the rabbit's right ear for depilation treatment as the observation area, and the inner side of the left ear of all rabbits as their own negative control, and applied 95% alcohol. The inner side of the right ear of the model group and the treatment group were both coated with 2% coal tar (Alfa Aesar China, which used 95% alcohol to prepare 2% coal tar solution), and evenly applied the sterile cotton swab to the opening of the ear duct on the inner side of the rabbit's ear within the range of about 2 cm×2 cm, once a day, 0.5 mL each time, and wiped the previous application site with warm water for 14 consecutive days to establish the acne micro-pigmentation model. Visually observed the changes of local skin, including ear thickness, hardness, roughness, and whether there was a black angle plug at the hair follicle mouth. 18 hours after the last application, the sample was sacrificed and skin was taken. The skin tissue was taken from the application site by using a 5 mm punch, fixed with 10% formaldehyde, embedded in paraffin, and stained with HE. The histopathological observation and analysis were carried out.
The histopathological changes were observed under the microscope, and the thickness of five different epidermises on a slice was measured with the Biomias99 image analysis system, and the average value was calculated; Detected the area of the two hair follicles and the diameter of the four sebaceous glands with the same position and the most complete structure in the four sections, calculated their average values, and then subtracted the data of the left and right external auditory canal of the rabbits in each group to obtain the difference in the thickness of the left and right ear epidermis, the difference in the area of the hair follicles and the difference in the diameter of the sebaceous glands.
SPSS16 software was used for statistical analysis. The paired t-test was used for the left and right self-contrast, and the t-test was used for the comparison between the groups, P<0.05 was statistically significant.

rat scar model = assay: Rat scar model (skin wound healing); type: in vivo; conditions: rat back wound 2.4 cm; 0.5% cream on the skin
From the text: 1.1 Preparation method of treatment cream: The excipient matrix components included methyl silicone oil (15%), stearic acid (6%), white vaseline (5%), liquid paraffin (5%), octadecanol (5%), glycerin (20%), alkylaryl polyglycol ether (1%), fatty alcohol polyoxyethylene ether (1%), […] (1%), ethyl paraben (0.1%), distilled water (about 31-55%), and mixed with appropriate amount of CLY series compounds to form a mixed emulsion. The emulsion matrix used in this embodiment refers to the matrix component after the active ingredient was removed from the emulsion.
1.2 Grouping and modeling of experimental animals: SPF grade male rats, weighing (210±28) g, from the Animal Center of Nanyi University. The rats were numbered according to their body weight and using the random array method, samples were divided into the model control group (applied cream matrix), CLY-1 treatment group (applied 0.5% CLY-1 cream on the skin), CLY-2 treatment group (applied 0.5% CLY-2 cream on the skin), CLY-3 treatment group (0.5% CLY-3 cream on the skin), CLY-4 treatment group (0.5% CLY-4 cream on the skin), CLY-8 treatment group (0.5% CLY-8 cream on the skin), CLY-11 treatment group (0.5% CLY-11 cream on the skin) CLY-19 treatment group (0.5% CLY-19 cream on the skin), CLY-36 treatment group (0.5% CLY-36 cream on the skin), and CLY-39 treatment group (0.5% CLY-39 cream on the skin), 6 in each group. Rats in each group were anesthetized by intraperitoneal injection of 2% pentobarbital sodium (120 mg/kg) and fixed on the operating table, and then chose a piece of 4×5 cm of intact skin on the back, 8% sodium sulfide hair removal, used tissue scissors to cut a wound with a diameter of 2.4 cm and a depth of muscle fascia at the hair removal site, and damage part of the muscle surface fascia. Animals were kept in separate cages to prevent rats from biting and licking. Applied 2% iodine tincture daily to the wound for routine disinfection, and observed the wound healing of rats.
The wounds were routinely disinfected every day, and the wounds of rats were observed on the 1st, 3rd, 5th, 7th, 12th, and 20th days. […] On the 12th day, the wounds in each treatment group had basically recovered, while the model group still had about 0.5 cm2 of wounds. By the 20th day, the wounds in each group had recovered, and the model control group left obvious scars, while each treatment group only left different amounts of pigmentation.

[1] = external use (0.25% CLY cream; positive: Differin)
[2] = intravenous injection 1 mg/kg·d

Structure (SMILES) | epidermal thickness (rabbit ear acne model; [1]) | hair follicle area (rabbit ear acne model; [1]) | sebaceous gland diameter (rabbit ear acne model; [1]) | epidermal thickness (rabbit ear acne model; [2]) | hair follicle area (rabbit ear acne model; [2]) | sebaceous gland diameter (rabbit ear acne model; [2]) | skin wound healing and scar formation (rat scar model)
CN1CCC[C@@H](N(C(=O)c2ccc(-n3nnc4cccnc43)cc2)c2ncccc2Cl)C1 [CLY-1, (R)-4-(3H-[1,2,3]triazolo[4,5-b]pyridin-3-yl)-N-(3-chloropyridin-2-yl)-N-(1-methylpiperidin-3-yl)benzamide] | 0.2376 ± 0.0182 mm | 0.2736 ± 0.0967* mm^2 | 0.0825 ± 0.0389 mm | 0.2287 ± 0.0171 mm | 0.2256 ± 0.0863* mm^2 | 0.0536 ± 0.0312 mm | significantly promote skin wound healing and reduce scar formation
CCN1CCC[C@@H](N(C(=O)c2ccc(-n3nnc4cccnc43)cc2)c2ncccc2Cl)C1 [CLY-2, (R)-4-(3H-[1,2,3]triazolo[4,5-b]pyridin-3-yl)-N-(3-chloropyridin-2-yl)-N-(1-ethylpiperidin-3-yl)benzamide] | 0.2348 ± 0.0169 mm | 0.2639 ± 0.0934* mm^2 | 0.0687 ± 0.0375 mm | 0.2265 ± 0.0165 mm | 0.2232 ± 0.0859* mm^2 | 0.0496 ± 0.0298 mm | significantly promote skin wound healing and reduce scar formation
CNC1CCCC(N(C(=O)c2ccc(-n3nnc4cccnc43)cc2)c2ncccc2Cl)C1 (stereo not drawn) [CLY-3] | 0.2385 ± 0.0198 mm | 0.2923 ± 0.0987* mm^2 | 0.0837 ± 0.0412 mm | 0.2316 ± 0.0196 mm | 0.2287 ± 0.0883* mm^2 | 0.0575 ± 0.0354 mm | significantly promote skin wound healing and reduce scar formation
O=C(c1ccc(-n2nnc3cccnc32)cc1)N(c1ncccc1Cl)C1CCCC(O)C1 (stereo not drawn) [CLY-4] | 0.2436 ± 0.0215 mm | 0.3254 ± 0.1126* mm^2 | 0.0958 ± 0.0456 mm | 0.2363 ± 0.0235 mm | 0.2465 ± 0.0923* mm^2 | 0.0625 ± 0.0386 mm | significantly promote skin wound healing and reduce scar formation
O=C(c1ccc(-n2nnc3cccnc32)cc1)N(c1ncccc1Cl)[C@@H]1CCNC1 [CLY-8, (R)-4-(3H-[1,2,3]triazolo[4,5-b]pyridin-3-yl)-N-(3-chloropyridin-2-yl)-N-(pyrrolidin-3-yl)benzamide] | 0.2237 ± 0.0168 mm | 0.2115 ± 0.0832* mm^2 | 0.0663 ± 0.0307 mm | 0.1843 ± 0.0156 mm | 0.1845 ± 0.0653* mm^2 | 0.0572 ± 0.0289 mm | significantly promote skin wound healing and reduce scar formation
NC1CCCC(N(C(=O)c2ccc(-n3nnc4cccnc43)cc2)c2ncccc2Cl)C1 (stereo not drawn) [CLY-11] | 0.2372 ± 0.0176 mm | 0.2745 ± 0.0946* mm^2 | 0.0786 ± 0.0392 mm | 0.2295 ± 0.0173 mm | 0.2246 ± 0.0856* mm^2 | 0.0552 ± 0.0325 mm | significantly promote skin wound healing and reduce scar formation
O=C(c1ccc(-c2ccccc2-c2nnn[nH]2)cc1)N(c1ncccc1Cl)[C@@H]1CCCNC1 [CLY-19] | 0.2365 ± 0.0181 mm | 0.2766 ± 0.0953* mm^2 | 0.0795 ± 0.0398 mm | 0.2276 ± 0.0165 mm | 0.2235 ± 0.0843* mm^2 | 0.0523 ± 0.0316 mm | significantly promote skin wound healing and reduce scar formation
O=C(c1ccc(-c2ccccc2Cl)cc1)N(c1ncccc1Cl)[C@@H]1CCCNC1 [CLY-36] | 0.2387 ± 0.0186 mm | 0.2773 ± 0.0945* mm^2 | 0.0805 ± 0.0406 mm | 0.2282 ± 0.0171 mm | 0.2241 ± 0.0846* mm^2 | 0.0536 ± 0.0319 mm | significantly promote skin wound healing and reduce scar formation
Nc1ccccc1-c1ccc(C(=O)N(c2ncccc2Cl)[C@@H]2CCCNC2)cc1 [CLY-39] | 0.2312 ± 0.0152 mm | 0.2315 ± 0.0662* mm^2 | 0.0716 ± 0.0323 mm | 0.2056 ± 0.0156 mm | 0.2056 ± 0.0762* mm^2 | 0.0531 ± 0.0306 mm | significantly promote skin wound healing and reduce scar formation
